ChEMBL document CHEMBL4342523, “Discovery and Development of S6821 and S7958 as Potent TAS2R8 Antagonists” (J Med Chem, 2020)
Calls of active or inactive are those of the source. The calls are words filed in the database; no cut-off is given here.

Legend:
[1] = Stability of the compound in pH 9.3 buffer assessed as parent compound remaining measured after 24 hrs at room temperature; assay type: physicochemical; settings: read-out: Stability
[2] = Stability of the compound in pH 5 buffer assessed as parent compound remaining measured after 24 hrs at 100 degC; assay type: physicochemical; settings: read-out: Stability
[3] = Stability of the compound in pH 6 buffer assessed as parent compound remaining measured after 60 mins at 124 degC; assay type: physicochemical; settings: read-out: Stability
[4] = target: T1, Taste receptor type 2 member 1 (Homo sapiens) (UniProt Q9NYW7); experiment: Agonist activity at TAS2R1 (unknown origin) at 25 uM by transiently expressed cell-based assay
T1 sequence (whole entry): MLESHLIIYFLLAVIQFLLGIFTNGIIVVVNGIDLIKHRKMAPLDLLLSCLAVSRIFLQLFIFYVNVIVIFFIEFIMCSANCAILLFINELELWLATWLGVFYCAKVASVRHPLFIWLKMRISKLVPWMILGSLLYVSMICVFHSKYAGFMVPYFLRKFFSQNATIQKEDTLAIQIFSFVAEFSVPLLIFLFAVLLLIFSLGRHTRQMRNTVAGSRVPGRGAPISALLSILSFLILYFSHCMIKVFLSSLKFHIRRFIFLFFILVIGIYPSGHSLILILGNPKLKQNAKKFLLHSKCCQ

Q: For Cc1noc(C)c1Cn1cc(N2C(=O)CN(Cc3cccc(O)c3)C2=O)cn1, which remaining at 24 h [1] is on record?
A: 20%

Q: What about the remaining at 24 h [2] of the same compound?
A: > 99%

Q: What about the remaining at 1 h [3] of the same compound?
A: > 99%

Q: And the Activity [4]?
A: Active
